Patent US20240092739A1, “COMPOUNDS AND METHODS OF USE” (Ferro Therapeutics, Inc, priority 2020, published 2024)
Like-named read-outs stand apart in the source and are kept apart here.

Legend:
[1] = test system: 786-O (renal cell carcinoma) cells; assay: Cell proliferation (Alamar Blue) assay, 786-O cells; assay type: cell-based; conditions: Homo sapiens
Method: (§1) Cell viability assay was performed to assess the potency of the compounds in human cancer cell lines 786-0 (renal cell carcinoma) and SJSA-1 (osteosarcoma). Additional cell lines, such as pancreatic cancer cell lines (Panc 02.13, BxPC-3, Panc 12, Panc 02.03, Panc 6.03, PSN-1, HPAC, and Capan-1), prostate cancer cell lines (PC-3, DU145, […], NCI-H660, 1PH1 LNCaP, BM-1604, and MDA PCa 2b), etc., can be tested in a similar method.
(§2) Cells (SJSA-1, 786-0 and A431) were seeded (5000 cells/100 μL/well) in 96-well tissue culture plate and incubated at 37° C./500 CO2 for 16-24 hours. The cells were then treated with compounds (25 μL of 5×). The compound concentrations were 10-0.0005 μM prepared in 3-fold serial dilutions with final DMSO concentration of 1%. The plates were then incubated for 24 h at 37° C./[…] in a moist environment. Then Alamar Blue™ reagent (final concentration 1×-12.5 μL) was added to each well and incubated for 1.5 hours at 37° C./500 CO2. The plates were read on fluorescence reader at 540 nm excitation and 590 nm emission wavelengths. The IC50 values were subsequently determined using a sigmoidal dose-response curve (variable slope) in GraphPad Prism® 5 software. Tables A-3 and B-11 show cell proliferation data for exemplary compounds as described herein.

A431 cells = assay: Cell proliferation (Alamar Blue) assay, A431 cells; assay type: cell-based; conditions: Homo sapiens
Method: as §1, §2

[2] = test system: 786-O cells + Ferrastatin-1; assay: GPX4 inhibition assay: cell proliferation (Alamar Blue) in 786-O cells with ferrostatin rescue; assay type: cell-based, human
Method: as §2
Studies have shown that lipophilic antioxidants, such as ferrostatin, can rescue cells from GPX4 inhibition-induced ferroptosis. For instance, mesenchymal state GPX4-knockout cells can survive in the presence of ferrostatin, however, when the supply of ferrostatin is terminated, these cells undergo ferroptosis (see, e.g., Viswanathan et al., Nature 547:453-7, 2017). […] Accordingly, the ability of a molecule to induce ferroptotic cancer cell death, and that such ability is admonished by the addition of ferrostatin, is clear indication that the molecule is an GPX4 inhibitor. Cell proliferation data for exemplary compounds with and without ferrostatin can be seen in Table A-3.

[3] = 786-0, 786-O cells, 24 h compound treatment, Alamar Blue, read-out: IC50 (μM) 786-O
[4] = A-431, A431 cells, 24 h compound treatment, Alamar Blue, read-out: IC50 (μM) A431
[5] = 786-O cells in presence of Ferrastatin-1 (rescue), read-out: IC50 (μM) 786-O + Ferrastatin-1
[6] = 786-0, 786-O cells, 24 h compound incubation, Alamar Blue, read-out: Cell proliferation IC50 (μM) 786-O
[7] = A-431, A431 cells, 24 h compound incubation, Alamar Blue, read-out: Cell proliferation IC50 (μM) A431
[8] = 786-O cells with Ferrastatin-1 (rescue), read-out: Cell proliferation IC50 (μM) 786-O + Ferrastatin-1

Row | IC50 [1, 3] [µM] | IC50 (A431 cells; [4]) [µM] | IC50 [2, 5] [µM] | Compound | IC50 [1, 6] [µM] | IC50 (A431 cells; [7]) [µM] | IC50 [2, 8] [µM] | IC50 ([1]; 786-0, 24 h, read-out: Cell proliferation IC50 (μM) 786-O) [µM] | IC50 (A431 cells; A-431, 24 h, read-out: Cell proliferation IC50 (μM) A431) [µM]
1 | 0.012 | 0.557 | 1.21 | C#CC(=O)N1[C@@H](CCCC)Cc2cc(C(F)(F)F)ccc2[C@@H]1c1ccc(NC23CC4CC(CC(C4)C2)C3)cc1 [Compound B-77] |  |  |  |  | 
2 |  |  |  | CCCC[C@H]1Cc2cc(OC)ccc2[C@@H](c2ccc(NC34CC5CC(CC(C5)C3)C4)c(C#N)c2)N1C(=O)C#C[Si](C)(C)C (stereo in doubt) [Compound A-16, 2-(((3S,5S,7S)-adamantan-1-yl)amino)-5-((1R,3S)-3-butyl-6-methoxy-2-(3-(trimethylsilyl)propioloyl)-1,2,3,4-tetrahydroisoquinolin-1-yl)benzonitrile] | 0.016 | ≥ 10 | > 10 |  | 
3 | 0.036 | 1.7 | 1.6 | C#CC(=O)N1[C@@H](CCC(C)C)Cc2cc(OC)ccc2[C@@H]1c1ccc(NC23CC4CC(CC(C4)C2)C3)cc1 [Compound B-72] |  |  |  |  | 
4 | 0.011 | 0.856 | 2.36 | C#CC(=O)N1[C@@H](CCCC)Cc2cc(NC(=O)C3CCCN3)ccc2[C@@H]1c1ccc(NC23CC4CC(CC(C4)C2)C3)cc1 (stereo partly shown) [Compound B-58] |  |  |  |  | 
5 |  |  |  | COc1ccc2c(c1)C[C@H](CC(C)C)N(C(=O)C#C[Si](C)(C)C)[C@H]2c1ccc(NC23CC4CC(CC(C4)C2)C3)cc1 [Compound A-43] | 0.0725 | 1.83 | 2.13 |  | 
6 | 0.055 | 3.15 | 2.62 | C#CC(=O)N1[C@@H](CCCC)Cc2cc(OC)ccc2[C@@H]1c1ccc(NC23CC4CC(CC(C4)C2)C3)c(Cl)c1 [Compound B-66] |  |  |  |  | 
7 |  |  |  | CCCC[C@H]1Cc2cc(OC)ccc2[C@H](c2ccc(NC34CC5CC(CC(C5)C3)C4)cc2)N1C(=O)C#C[Si](C)(C)CC [Compound A-33, 1-((1S,3S)-1-(4-(((1s,3R)-adamantan-1-yl)amino)phenyl)-3-butyl-6-methoxy-3,4-dihydroisoquinolin-2(1H)-yl)-3-(ethyldimethylsilyl)prop-2-yn-1-one] | 0.023 |  | > 1 |  | 
8 |  |  |  | CCC[C@H]1Cc2cc(OC)ccc2[C@H](c2ccc(NC34CC5CC(CC(C5)C3)C4)cc2)N1C(=O)C#C[Si](C)(C)C [Compound A-3] | 0.029 |  | > 1 |  | 
9 | 0.012 | 0.117 | 1.27 | C#CC(=O)N1[C@@H](CCCC)Cc2cc(CCCO)ccc2[C@@H]1c1ccc(NC23CC4CC(CC(C4)C2)C3)cc1 [Compound B-56] |  |  |  |  | 
10 |  |  |  | CCCC[C@H]1Cc2cc(C(F)(F)F)ccc2[C@H](c2ccc(NC34CC5CC(CC(C5)C3)C4)cc2)N1C(=O)C#C[Si](C)(C)C [Compound A-28] | 0.015 | 2.94 | 3.58 |  | 
11 | 0.012 | 2.08 | 1.59 | C#CC(=O)N1[C@@H](CCCC)Cc2cc(OCCOC)ccc2[C@@H]1c1ccc(NC23CC4CC(CC(C4)C2)C3)cc1 [Compound B-70] |  |  |  |  | 
12 | 0.055 | 1.49 | 2.01 | C#CC(=O)N1[C@@H](CCCC)Cc2cc(OC)ccc2[C@@H]1c1ccc(NC23CC4CC(CC(O)(C4)C2)C3)cc1 [Compound B-13] |  |  |  |  | 
13 | 0.025 | 3.06 | 1.91 | C#CC(=O)N1[C@@H](CCCC)Cc2cc(OC)ccc2[C@@H]1c1cccc(NC23CC4CC(CC(C4)C2)C3)c1 [Compound B-74] |  |  |  |  | 
14 |  |  |  | CCCC[C@H]1Cc2c([nH]c3ccccc23)[C@H](c2ccc(NC3CCC3)cc2)N1C(=O)C#C[Si](C)(C)C [Compound A-2] |  |  | 8.63 | 0.009 | > 10
15 |  |  |  | CCCC[C@H]1Cc2cc(OC(F)(F)F)ccc2[C@H](c2ccc(NC34CC5CC(CC(C5)C3)C4)cc2)N1C(=O)C#C[Si](C)(C)C [Compound A-26, 1-((1S,3S)-1-(4-(((3R,5R,7R)-adamantan-1-yl)amino)phenyl)-3-butyl-6-(trifluoromethoxy)-3,4-dihydroisoquinolin-2(1H)-yl)-3-(trimethylsilyl)prop-2-yn-1-one] | 0.043 | 3.05 | 4.19 |  | 
16 | 0.005 | 2.88 | 2.81 | C#CC(=O)N1[C@@H](CCCC)Cc2cc(OCCOC(=O)CN)ccc2[C@@H]1c1ccc(NC23CC4CC(CC(C4)C2)C3)cc1 [Compound B-57] |  |  |  |  | 
17 |  |  |  | CCCC[C@H]1Cc2cc(OC)ccc2[C@H](c2ccc(C#N)cc2)N1C(=O)C#C[Si](C)(C)C [Compound A-1] | 0.043 | > 10 | 7 |  | 
18 |  |  |  | CCCC[C@H]1Cc2cc(OC)ccc2[C@H](C23CC(F)(C2)C3)N1C(=O)C#C[Si](C)(C)C [Compound A-9, 1-((1S,3S)-3-butyl-1-(3-fluorobicyclo[1.1.1]pentan-1-yl)-6-methoxy-3,4-dihydroisoquinolin-2(1H)-yl)-3-(trimethylsilyl)prop-2-yn-1-one] | 0.18 | > 1 | > 1 |  | 
19 | 0.015 | 1.79 | 2.47 | C#CC(=O)N1[C@@H](CCCC)Cc2c(OC)cccc2[C@@H]1c1ccc(NC23CC4CC(CC(C4)C2)C3)cc1 [Compound B-69] |  |  |  |  | 
20 |  |  |  | CCCC[C@H]1Cc2cc(OC)ccc2[C@H](c2ccc(NC34CC5CC(CC(C5)C3)C4)c(C#N)c2)N1C(=O)C#C[Si](C)(C)C [Compound A-15, 2-(((3R,5R,7R)-adamantan-1-yl)amino)-5-((1S,3S)-3-butyl-6-methoxy-2-(3-(trimethylsilyl)propioloyl)-1,2,3,4-tetrahydroisoquinolin-1-yl)benzonitrile] | 0.021 |  | > 1 |  | 
21 |  |  |  | CCCC[C@H]1Cc2cc(OC)ccc2[C@@H](C23CC(F)(C2)C3)N1C(=O)C#C[Si](C)(C)C [Compound A-10, 1-((1R,3S)-3-butyl-1-(3-fluorobicyclo[1.1.1]pentan-1-yl)-6-methoxy-3,4-dihydroisoquinolin-2(1H)-yl)-3-(trimethylsilyl)prop-2-yn-1-one] | 0.075 | > 1 | > 1 |  | 
22 |  |  |  | COc1ccc2c(c1)C[C@H](C1CCC1)N(C(=O)C#C[Si](C)(C)C)[C@@H]2c1ccc(NC23CC4CC(CC(C4)C2)C3)cc1 (stereo in doubt) [Compound A-8, 1-((1R,3R)-1-(4-(((3S,5S,7S)-adamantan-1-yl)amino)phenyl)-3-cyclobutyl-6-methoxy-3,4-dihydroisoquinolin-2(1H)-yl)-3-(trimethylsilyl)prop-2-yn-1-one] | 0.064 | 4.79 | 5.05 |  | 
23 |  |  |  | COc1ccc2c(c1)C[C@H](C1CCC1)N(C(=O)C#C[Si](C)(C)C)[C@H]2c1ccc(NC23CC4CC(CC(C4)C2)C3)cc1 [Compound A-7, 1-((1S,3R)-1-(4-(((3R,5R,7R)-adamantan-1-yl)amino)phenyl)-3-cyclobutyl-6-methoxy-3,4-dihydroisoquinolin-2(1H)-yl)-3-(trimethylsilyl)prop-2-yn-1-one] | 0.021 |  | > 1 |  | 
24 |  |  |  | CCC[C@H]1Cc2cc(OC)ccc2[C@@H](c2ccc(NC34CC5CC(CC(C5)C3)C4)cc2)N1C(=O)C#C[Si](C)(C)C [Compound A-4] | 0.067 | > 1 | > 1 |  | 
25 |  |  |  | CCCC[C@H]1Cc2cc(OC)ccc2[C@H](c2ccc(NC3CCC3)cc2)N1C(=O)C#C[Si](C)(C)C [Compound A-25, 1-((1S,3S)-3-butyl-1-(4-(cyclobutylamino)phenyl)-6-methoxy-3,4-dihydroisoquinolin-2(1H)-yl)-3-(trimethylsilyl)prop-2-yn-1-one] | 0.171 |  | > 1 |  | 
